Laboratory results taken from patent US20110033850A1, “COMPOSITIONS AND METHODS FOR THE IDENTIFICATION OF INHIBITORS OF RETROVIRAL INFECTION” (priority 2007, published 2011).

Tested on: HIV
Experiment: anti-HIV activity in freshly harvested PBMC cells (secondary HIV assay)
Type: cell-based
Procedure: These compounds were analyzed for anti-HIV activity in freshly harvested PBMC cells. Of the 30 tested compounds, 15 were active at a concentration of less than 100 ˜M (the highest tested concentration). Of these 15 compounds, 9 were […] to the PBMC cells at the 100 ˜M concentration; thus, an absolute conclusion regarding the differential toxicity to HIV and PBMC cells cannot be drawn with these 9 compounds. […]

CN(C)c1cccc2c(C=O)ccc(N(C)C)c12
anti-HIV activity: 0.022 µM

O=C1c2ccccc2C(=O)c2c1nc1ccccn21 [naphtho[2′,3′,4,5]imidazo[1,2-a]pyridine-6,11-dione]
anti-HIV activity: 0.63 µM
